Assay results reported in patent publication US10398144B2, “N-,C-disubstituted azoles and compositions and methods for controlling nematode pests” (Monsanto Technology LLC, priority 2013, dated 2019).
Marks after values point to notes of the source that are not given here.

Tests used:
[1] = system: Meloidogyne incognita nematodes; assay: Miniaturized greenhouse nematicidal efficacy assay (cucumber root gall rating); settings: average of triplicate gall ratings
Experimental: A miniaturized greenhouse assay was conducted to study the effects of several N-,C-disubstituted azole analogs on Meloidogyne incognita nematodes.
Cucumber seeds were sprouted for 3 days in moist paper towels. Acceptable sprouts were 3 to 4 cm long, with several lateral roots just emerging.
Each test solution was evaluated in triplicate. Dry sand (10 mL) was added to each vial. Seedlings were planted by tilting the vial and laying the seedling in the correct orientation so that the cotyledons were just above the sand, and then tilting back to cover the radicles with sand.
A sample of the test solution (3.3 mL) was then added to each vial, and the vials were placed in racks under fluorescent light banks. The vials were inoculated two days after planting by adding 500 vermiform M. incognita eggs to each vial in deionized or spring water (50 μL). The vials were then kept under the fluorescent lamps at ambient room temperature and watered as needed with deionized water (1 mL), usually twice during duration of test.
Harvest of the cucumber plants was performed 10 to 12 days after inoculation by washing sand off the roots. A root gall rating was assigned using the following Gall rating scale (Gall: % root mass galled): 0=0-5%; 1=6-20%; 2=21-50%; and 3=51-100%.

[2] = 1 ppm, cucumber seedlings in sand, 500 M. incognita eggs, harvest 10 to 12 days after inoculation, scale 0=0-5%, 1=6-20%, 2=21-50%, 3=51-100% root mass galled
[3] = 8 ppm, cucumber seedlings in sand, 500 M. incognita eggs, harvest 10 to 12 days after inoculation, scale 0=0-5%, 1=6-20%, 2=21-50%, 3=51-100% root mass galled
[4] = 40 ppm, cucumber seedlings in sand, 500 M. incognita eggs, harvest 10 to 12 days after inoculation, scale 0=0-5%, 1=6-20%, 2=21-50%, 3=51-100% root mass galled

melting point [°C] | Compound | 40/8/1 ppm gall ratings ([1]; comparative compositions at 1 ppm, letters a-d mark separate tests, scale 0-3) | 40/8/1 ppm gall ratings [1, 2] | 40/8/1 ppm gall ratings [1, 3] | 40/8/1 ppm gall ratings [1, 4]
 | Abamectin [reference compound] | 1.67^d |  |  | 
 | Clc1ccc(-n2cc(-c3cccs3)cn2)cc1 [Ib-ii, 1-(4-chlorophenyl)-4-(thiophen-2-yl)-1H-pyrazole] |  | 2.33 | 0.67 | 0.00
 | c1ccc(-c2cn(-c3cccs3)cn2)cc1 [IIc-iii, 4-phenyl-1-(thiophen-2-yl)-1H-imidazole] |  | 2.33 | 1.33 | 0.00
118 to 120 | c1ccc(-n2cc(-c3ccco3)nn2)cc1 [Formula Ia-i, 4-(furan-2-yl)-1-phenyl-1H-1,2,3-triazole] |  |  |  | 
 | Fc1ccc(-n2cc(-c3cccs3)nn2)c(F)c1 [Ia-ii, 1-(2,4-difluorophenyl)-4-(thiophen-2-yl)-1H-1,2,3-triazole] |  | 3.00 | 2.33 | 0.00
 | c1ccc(-c2cn(-c3cccs3)nn2)cc1 [IIa-ii, 4-phenyl-1-(thiophen-2-yl)-1H-1,2,3-triazole] |  | 1.67 | 0.00 | 0.00
 | Fc1ccc(-n2cc(-c3ccco3)nn2)cc1 [Ia-iv, 1-(4-fluorophenyl)-4-(furan-2-yl)-1H-1,2,3-triazole] |  | 2.33 | 1.67 | 0.33
 | c1ccc(-n2cc(-c3ccco3)nn2)cc1 [Ia-i, 4-(furan-2-yl)-1-phenyl-1H-1,2,3-triazole] |  | 2.67 | 1.33 | 0.00
 | Clc1ccc(-c2cn(-c3ccco3)cn2)cc1 [IIc-iv, 4-(4-chlorophenyl)-1-(furan-2-yl)-1H-imidazole] |  | 2.33 | 2.00 | 0.33
 | Clc1ccc(-n2cnc(-c3ccco3)c2)cc1 [Ic-i, 1-(4-chlorophenyl)-4-(furan-2-yl)-1H-imidazole] |  | 3.00 | 2.00 | 0.33
 | c1ccc(-n2cc(-c3cccs3)cn2)cc1 [Ib-i, 1-phenyl-4-(thiophen-2-yl)-1H-pyrazole] |  | 3.00 | 0.33 | 0.00
 | c1ccc(-n2cc(-c3ccco3)cn2)cc1 [Ib-iii, 4-(furan-2-yl)-1-phenyl-1H-pyrazole] |  | 2.67 | 1.67 | 0.00
 | c1ccc(-n2ncc(-c3ccco3)n2)cc1 [Id-ii, 4-(furan-2-yl)-2-phenyl-2H-1,2,3-triazole] |  | 2.33 | 1.00 | 0.00
 | Fc1ccc(-c2cn(-c3cccs3)nn2)cc1 [IIa-iv, 4-(4-fluorophenyl)-1-(thiophen-2-yl)-1H-1,2,3-triazole] |  | 2.67 | 1.33 | 0.33
 | c1ccc(-n2ncc(-c3cccs3)n2)cc1 [Id-i, 2-phenyl-4-(thiophen-2-yl)-2H-1,2,3-triazole] |  | 1.67 | 0.33 | 0.00
 | c1ccc(-c2cn(-c3ccco3)nn2)cc1 [IIa-iii, 1-(furan-2-yl)-4-phenyl-1H-1,2,3-triazole] |  | 2.00 | 1.33 | 0.00
 | Clc1ccc(-c2cn(-c3ccco3)nn2)cc1 [IIa-v, 4-(4-chlorophenyl)-1-(furan-2-yl)-1H-1,2,3-triazole] |  | 2.33 | 0.67 | 0.00
 | Fc1ccc(-n2cc(-c3ccco3)nn2)c(F)c1 [Ia-v, 1-(2,4-difluorophenyl)-4-(furan-2-yl)-1H-1,2,3-triazole] |  | 2.33 | 0.67 | 0.00
 | Clc1ccc(-c2cn(-c3cccs3)cn2)cc1 [IIc-i, 4-(4-chlorophenyl)-1-(thiophen-2-yl)-1H-imidazole] |  | 1.67 | 1.33 | 0.00
 | Fc1ccc(-c2cn(-c3cccs3)nn2)c(F)c1 [IIa-i, 4-(2,4-difluorophenyl)-1-(thiophen-2-yl)-1H-1,2,3-triazole] |  | 1.67 | 0.00 | 0.00
 | Clc1ccc(-n2cc(-c3ccco3)nn2)cc1 [Ia-iiii, 1-(4-chlorophenyl)-4-(furan-2-yl)-1H-1,2,3-triazole] |  | 2.67 | 1.00 | 0.00
78 | c1ccc(-n2ncc(-c3cccs3)n2)cc1 [Formula Id-i, 2-phenyl-4-(thiophen-2-yl)-2H-1,2,3-triazole] |  |  |  | 
